Patent US8815796B2, “Polyheterocyclic compounds highly potent as HCV inhibitors” (AB Pharma Ltd., priority 2010, dated 2014)
Where two headings read alike, the source gives them in different places.

Target: T1, HCV NS3-4A protease (Hepatitis C virus genotype 1a, UniProt P27958)
T1 construct: HCV NS3-4A protease
Assay: HCV NS3-4A protease assay in vitro (FRET-S substrate)
Assay type: biochemical
Protocol: HCV NS3-4A Protease Assay In Vitro.
The assay was conducted in Buffer A containing 30 mM NaCl, 5 mM CaCl2, 10 mM DTT, 50 mM Tris (pH7.8), using the Ac-Asp-Glu-Asp(EDANS)-Glu-Glu-Abu-ψ-[COO]-Ala-Ser-Lys (DABCYL)-NH2 (FRET-S) fluorescent peptide (AnaSpec, USA) as substrate. Briefly, 140 μL buffer A, 20 μL compounds dissolved in buffer A with different concentration and 20 μL HCV NS3-4A protease diluted in buffer A were added into 96-well plate respectively and mixed well. The reaction was initiate with adding 20 μL of FRET-S. Reactions were continuously monitored at 37° C. using a BMG Polarstar Galaxy (MTX Lab Systems, Inc. USA), with excitation and emission filters of 355 nm and 520 nm, respectively. The 50% inhibitory concentration (IC50) was calculated with Reed & Muench methods.

[1] = HCV NS3-4A protease inhibition, 37° C., class symbols, read-out: NS3-NS4A IC50

T1 sequence (P27958 1027-1657): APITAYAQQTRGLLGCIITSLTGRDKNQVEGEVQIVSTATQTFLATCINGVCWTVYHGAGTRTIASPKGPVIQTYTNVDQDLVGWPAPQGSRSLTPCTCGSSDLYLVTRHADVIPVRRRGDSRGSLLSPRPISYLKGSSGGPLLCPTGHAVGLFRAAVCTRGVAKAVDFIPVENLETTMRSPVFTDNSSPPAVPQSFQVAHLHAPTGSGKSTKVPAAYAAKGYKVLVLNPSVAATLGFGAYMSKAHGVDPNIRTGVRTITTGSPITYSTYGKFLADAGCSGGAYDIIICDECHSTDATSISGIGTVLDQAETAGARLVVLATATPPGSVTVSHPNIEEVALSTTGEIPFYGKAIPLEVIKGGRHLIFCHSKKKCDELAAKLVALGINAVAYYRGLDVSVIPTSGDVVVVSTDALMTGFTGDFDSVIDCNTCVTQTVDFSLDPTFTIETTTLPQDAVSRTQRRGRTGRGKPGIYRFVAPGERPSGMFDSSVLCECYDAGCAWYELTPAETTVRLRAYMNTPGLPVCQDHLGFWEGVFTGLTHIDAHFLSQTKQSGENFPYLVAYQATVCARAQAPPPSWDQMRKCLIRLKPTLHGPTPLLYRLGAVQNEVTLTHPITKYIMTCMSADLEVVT
T1 sequence (P27958 1658-1711): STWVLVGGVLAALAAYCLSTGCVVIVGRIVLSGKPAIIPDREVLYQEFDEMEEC

SMILES | IC50 [1] [µM] | IC50 [µM]
O=C1N[C@]2(C(=O)NS(=O)(=O)C3CC3)C[C@H]2/C=C\CCCCC[C@H](Nc2ccccc2)C(=O)N2C[C@H](OC(=O)N3Cc4cc5c(cc4C3)OCO5)C[C@@H]12 [Compound 15a] | < 0.03 | 
O=C1N[C@]2(C(=O)NS(=O)(=O)C3CC3)C[C@H]2/C=C\CCCCC[C@H](N2CCCS2(=O)=O)C(=O)N2C[C@H](OC(=O)N3Cc4cc5c(cc4C3)OCCO5)C[C@@H]12 [Compound 12j] | 0.03 to 0.2 | 
C=C[C@H]1C[C@@]1(NC(=O)C1C[C@@H](OC(=O)N2Cc3ccc4c(c3C2)OCO4)CN1C(=O)[C@@H](NC(=O)[C@@H](NC(=O)c1cnccn1)C1CCCCC1)C(C)(C)C)C(=O)NS(=O)(=O)C1CC1 (stereo partly shown) [Compound 30e] |  | < 0.03
CN1CCCCC/C=C\[C@@H]2C[C@@]2(C(=O)NS(=O)(=O)C2CC2)NC(=O)[C@@H]2CC(OC(=O)N3Cc4cc5c(cc4C3)OCCO5)CN2C1=O (stereo partly shown) [Compound 27b] | 0.03 to 0.2 | 
CC[C@H]1C[C@@]1(NC(=O)C1C[C@@H](OC(=O)N2Cc3cc4c(cc3C2)OCO4)CN1C(=O)[C@@H](NC(=O)[C@@H](NC(=O)Oc1ccccc1)C1CCCCC1)C(C)(C)C)C(=O)NS(=O)(=O)C1CC1 (stereo partly shown) [Compound 30z] |  | < 0.03
C=C[C@H]1C[C@@]1(NC(=O)C1C[C@@H](OC(=O)N2Cc3cccc(F)c3C2)CN1C(=O)[C@@H](NC(=O)OC(C)(C)C)C(C)(C)C)C(=O)NS(=O)(=O)C1CC1 (stereo partly shown) [Compound 30aj] | < 0.03 | 
O=C1N[C@]2(C(=O)NS(=O)(=O)C3CC3)C[C@H]2/C=C\CCCCC[C@H](Nc2cccc(F)c2)C(=O)N2C[C@H](OC(=O)N3Cc4cc5c(cc4C3)OCO5)C[C@@H]12 [Compound 15b] | < 0.03 | 
C=C[C@H]1C[C@@]1(NC(=O)C1C[C@@H](OC(=O)N2Cc3cc4c(cc3C2)OCO4)CN1C(=O)[C@@H](NC(=O)OC(C)(C)C)C(C)(C)C)C(=O)NS(=O)(=O)C1CC1 (stereo partly shown) [Compound 30af] | < 0.03 | 
CC[C@H]1C[C@@]1(NC(=O)C1C[C@@H](OC(=O)N2Cc3cc4c(cc3C2)OCO4)CN1C(=O)[C@@H](NC(=O)[C@@H](NC(=O)OC(C)(C)C)C1CCCCC1)C(C)(C)C)C(=O)NS(=O)(=O)C1CC1 (stereo partly shown) [Compound 30m] |  | < 0.03
O=C1N[C@]2(C(=O)NS(=O)(=O)C3CC3)C[C@H]2/C=C\CCCCCN(C2CC2)C(=O)C2C[C@H](OC(=O)N3Cc4cc5c(cc4C3)OCO5)C[C@@H]12 (stereo partly shown) [Compound 21b] | 0.03 to 0.2 | 
CCC[C@H](NC(=O)C1C[C@@H](OC(=O)N2Cc3cc4c(cc3C2)OCCO4)CN1C(=O)[C@@H](NC(=O)[C@@H](NC(=O)c1cnccn1)C1CCCCC1)C(C)(C)C)C(=O)C(=O)NC1CC1 (stereo partly shown) [Compound 33b] |  | 0.03 to 0.2
CC[C@H]1C[C@@]1(NC(=O)C1C[C@@H](OC(=O)N2Cc3cc4c(cc3C2)OCCCO4)CN1C(=O)[C@@H](NC(=O)[C@@H](NC(=O)OC1CCCC1)C1CCCCC1)C(C)(C)C)C(=O)NS(=O)(=O)C1CC1 (stereo partly shown) [Compound 30ae] |  | 0.03 to 0.2
CC(C)(C)OC(=O)N[C@H]1CCCCC/C=C\[C@@H]2C[C@@]2(C(=O)O)NC(=O)[C@@H]2C[C@@H](OC(=O)N3Cc4ccc5c(c4C3)OCCO5)CN2C1=O [Compound 11b] | > 0.2 | 
CC[C@H]1C[C@@]1(NC(=O)C1C[C@@H](OC(=O)N2Cc3cc4c(cc3C2)OCO4)CN1C(=O)[C@@H](NC(=O)[C@@H](NS(=O)(=O)c1ccc2ccccc2c1)C1CCCCC1)C(C)(C)C)C(=O)NS(=O)(=O)C1CC1 (stereo partly shown) [Compound 30s] | < 0.03 | 
CC(C)S(=O)(=O)NC(=O)[C@@]12C[C@H]1/C=C\CCCCC[C@H](NC(=O)OC(C)(C)C)C(=O)N1C[C@H](OC(=O)N3Cc4cc5c(cc4C3)OCCO5)C[C@H]1C(=O)N2 [Compound 12g] | < 0.03 | 
O=C1N[C@]2(C(=O)NS(=O)(=O)C3CC3)C[C@H]2/C=C\CCCCC[C@H](NS(=O)(=O)c2ccccc2)C(=O)N2C[C@H](OC(=O)N3Cc4cc5c(cc4C3)OCO5)C[C@@H]12 [Compound 16b] | < 0.03 | 
O=C1N[C@]2(C(=O)NS(=O)(=O)C3CC3)C[C@H]2/C=C\CCCCN(C2CC2)C(=O)C2C[C@H](OC(=O)N3Cc4cc5c(cc4C3)OCO5)C[C@@H]12 (stereo partly shown) [Compound 21a] | 0.03 to 0.2 | 
CC[C@H]1C[C@@]1(NC(=O)C1C[C@@H](OC(=O)N2Cc3cc4c(cc3C2)OCO4)CN1C(=O)[C@@H](NC(=O)[C@@H](NS(=O)(=O)c1cccc2ccccc12)C1CCCCC1)C(C)(C)C)C(=O)NS(=O)(=O)C1CC1 (stereo partly shown) [Compound 30p] | < 0.03 | 
CC(C)S(=O)(=O)NC(=O)[C@@]12C[C@H]1/C=C\CCCCC[C@H](NC(=O)OC(C)(C)C)C(=O)N1C[C@H](OC(=O)N3Cc4cc5c(cc4C3)OCO5)C[C@H]1C(=O)N2 [Compound 12h] | < 0.03 | 
CC[C@H]1C[C@@]1(NC(=O)C1C[C@@H](OC(=O)N2Cc3cc4c(cc3C2)OCO4)CN1C(=O)[C@@H](NC(=O)[C@@H](NC(=O)NC(C)(C)C)C1CCCCC1)C(C)(C)C)C(=O)NS(=O)(=O)C1CC1 (stereo partly shown) [Compound 30ac] |  | < 0.03

SMILES | IC50 [1] [µM] | IC50 [µM]
CC[C@H]1C[C@@]1(NC(=O)C1C[C@@H](OC(=O)N2Cc3cc4c(cc3C2)OCO4)CN1C(=O)[C@@H](NC(=O)[C@@H](NC(=O)OCC1c2ccccc2-c2ccccc21)C1CCCCC1)C(C)(C)C)C(=O)NS(=O)(=O)C1CC1 (stereo partly shown) [Compound 30aa] |  | < 0.03
CC[C@H]1C[C@@]1(NC(=O)C1C[C@@H](OC(=O)N2Cc3cc4c(cc3C2)OCO4)CN1C(=O)[C@@H](NC(=O)OC(C)(C)C)C(C)(C)C)C(=O)NS(=O)(=O)C1CC1 (stereo partly shown) [Compound 30ag] | < 0.03 | 
O=C1N[C@]2(C(=O)NS(=O)(=O)C3CC3)C[C@H]2/C=C\CCCCC[C@H](NS(=O)(=O)c2ccc(Cl)cc2)C(=O)N2C[C@H](OC(=O)N3Cc4cc5c(cc4C3)OCO5)C[C@@H]12 [Compound 16a] | < 0.03 | 
CN1CCCC/C=C\[C@@H]2C[C@@]2(C(=O)NS(=O)(=O)C2CC2)NC(=O)[C@@H]2C[C@@H](OC(=O)N3Cc4cc5c(cc4C3)OCO5)CC2C1=O (stereo partly shown) [Compound 21c] | < 0.03 | 
CC[C@H]1C[C@@]1(NC(=O)C1C[C@@H](OC(=O)N2Cc3cc4c(cc3C2)OCO4)CN1C(=O)[C@@H](NC(=O)OC1CCCC1)C(C)(C)C)C(=O)NS(=O)(=O)C1CC1 (stereo partly shown) [Compound 30am] | < 0.03 | 
CC(C)S(=O)(=O)NC(=O)[C@@]12C[C@H]1/C=C\CCCCC[C@H](NC(=O)OC(C)(C)C)C(=O)N1C[C@H](OC(=O)N3Cc4ccc5c(c4C3)OCCO5)C[C@H]1C(=O)N2 [Compound 12f] | < 0.03 | 
CC[C@H]1C[C@@]1(NC(=O)C1C[C@@H](OC(=O)N2Cc3cc4c(cc3C2)OCO4)CN1C(=O)[C@@H](NC(=O)[C@@H](NC(=O)c1cnccn1)C1CCCCC1)C(C)(C)C)C(=O)NS(=O)(=O)C1CC1 (stereo partly shown) [Compound 30b] |  | < 0.03
C=C[C@H]1C[C@@]1(NC(=O)C1C[C@@H](OC(=O)N2Cc3cc4c(cc3C2)OCO4)CN1C(=O)[C@@H](NC(=O)[C@@H](NC(=O)NC(C)(C)C)C1CCCCC1)C(C)(C)C)C(=O)NS(=O)(=O)C1CC1 (stereo partly shown) [Compound 30ab] |  | < 0.03
CC(C)OC(=O)N[C@H]1CCCCC/C=C\[C@@H]2C[C@@]2(C(=O)NS(=O)(=O)C2CC2)NC(=O)[C@@H]2C[C@@H](OC(=O)N3Cc4cc5c(cc4C3)OCO5)CN2C1=O [Compound 12q] | < 0.03 | 
CC[C@H]1C[C@@]1(NC(=O)C1C[C@@H](OC(=O)N2Cc3cc4c(cc3C2)OCO4)CN1C(=O)[C@@H](NC(=O)[C@@H](NC(=O)OC)C1CCCCC1)C(C)(C)C)C(=O)NS(=O)(=O)C1CC1 (stereo partly shown) [Compound 30x] |  | < 0.03
O=C(N[C@H]1CCCCC/C=C\[C@@H]2C[C@@]2(C(=O)NS(=O)(=O)C2CC2)NC(=O)[C@@H]2C[C@@H](OC(=O)N3Cc4cc5c(cc4C3)OCO5)CN2C1=O)OC1CCCC1 [Compound 12r] | < 0.03 | 
CC[C@H]1C[C@@]1(NC(=O)C1C[C@@H](OC(=O)N(C)Cc2ccc3c(c2)OCO3)CN1C(=O)[C@@H](NC(=O)OC1CCCC1)C(C)(C)C)C(=O)NS(=O)(=O)C1CC1 (stereo partly shown) [Compound 30ap] | < 0.03 | 
CC[C@H]1C[C@@]1(NC(=O)C1C[C@@H](OC(=O)N2Cc3cc4c(cc3C2)OCO4)CN1C(=O)[C@@H](NC(=O)[C@@H](NC(=O)OC1CCCC1)C1CCCCC1)C(C)(C)C)C(=O)NS(=O)(=O)C1CC1 (stereo partly shown) [Compound 30t] |  | < 0.03
COc1ccc(S(=O)(=O)N[C@H]2CCCCC/C=C\[C@@H]3C[C@@]3(C(=O)NS(=O)(=O)C3CC3)NC(=O)[C@@H]3C[C@@H](OC(=O)N4Cc5cc6c(cc5C4)OCO6)CN3C2=O)cc1 [Compound 16c] | < 0.03 | 
CN1CCCCC/C=C\[C@@H]2C[C@@]2(C(=O)NS(=O)(=O)C2CC2)NC(=O)[C@@H]2CC(OC(=O)N3Cc4cc5c(cc4C3)OCO5)CN2C1=O (stereo partly shown) [Compound 27a] | 0.03 to 0.2 | 
CC[C@H]1C[C@@]1(NC(=O)C1C[C@@H](OC(=O)N2Cc3cc4c(cc3C2)OCO4)CN1C(=O)[C@@H](NC(=O)[C@@H](NC(=O)OCc1ccccc1)C1CCCCC1)C(C)(C)C)C(=O)NS(=O)(=O)C1CC1 (stereo partly shown) [Compound 30y] |  | < 0.03
C=C[C@H]1C[C@@]1(NC(=O)C1C[C@@H](OC(=O)N2Cc3cc4c(cc3C2)OCCO4)CN1C(=O)[C@@H](NC(=O)[C@@H](NC(=O)c1cnccn1)C1CCCCC1)C(C)(C)C)C(=O)NS(=O)(=O)C1CC1 (stereo partly shown) [Compound 30c] |  | < 0.03
CC(C)(C)OC(=O)N[C@H]1CCCCC/C=C\[C@@H]2C[C@@]2(C(=O)NS(=O)(=O)C2CC2)NC(=O)[C@@H]2C[C@@H](OC(=O)N3Cc4cc5c(cc4C3)OCO5)CN2C1=O [Compound 12d] | < 0.03 | 
C=C[C@H]1C[C@@]1(NC(=O)C1C[C@@H](OC(=O)N2Cc3ccc4c(c3C2)OCO4)CN1C(=O)[C@@H](NC(=O)OC1CCCC1)C(C)(C)C)C(=O)NS(=O)(=O)C1CC1 (stereo partly shown) [Compound 30an] | < 0.03 | 
CC(C)(C)OC(=O)N[C@H]1CCCCC/C=C\[C@@H]2C[C@@]2(C(=O)NS(=O)(=O)C2CC2)NC(=O)[C@@H]2C[C@@H](OC(=O)N3Cc4ccc5c(c4C3)OCCCO5)CN2C1=O [Compound 12n] | < 0.03 | 
